Measured values reported in paper PMC4872784 (Oncotarget, 2016).
“And” between values parts separate entries of the source, which are not always exact repeats. Equal entries are not always repeated. Where two headings read alike, the source gives them in different places.

Legend:
MOLM14 cells = test: viable cell counts via Trypan Blue dye exclusion, 48h; assay type: cell-based, human
Procedure: A. Quantification of the percentage of early apoptotic cells (Annexin-V+/7-AAD-) from three independent experiments in which cells were stained for apoptosis with 7-AAD and Annexin-V then analyzed by flow cytometry. […] C. […] 16h after addition of drugs, cells were washed and analyzed by flow cytometry for CM-H2DCFDA fluorescence (indicating total ROS generation) in the FL1 channel. Mean Fluorescence Intensity (MFI) was normalized to that of vehicle control (0.5% DMSO) with no pretreatment. […] Viable cell counts, obtained via Trypan Blue dye exclusion, were normalized to vehicle (0.02% DMSO)-treated samples +/– pretreatment.
(§1) In most experiments, cytotoxicity was assessed using alamarBlue assays (Life Technologies, Grand Island, NY). In experiments using NAC and DFO, which can interfere with alamarBlue assay performance, Trypan Blue dye exclusion was used instead.

NSG mice = test: tolerability / maximum-tolerated dose
Procedure: Blood samples were collected via
retro-orbital bleeding into EDTA-coated tubes from MOLM14 NSG mice 1 day A-D. and 7 days E-H. after completion of a 5-day drug
CBCs were determined using a Hemavet 950 analyzer.
Normal blood samples were obtained from normal, untreated NSG mice (n = 37) over several years.

[1] = tested on: 23 human leukemia cell lines; test: alamarBlue cytotoxicity assay, panel summary; assay type: cell-based
Procedure: (§2) Following subtraction of background fluorescence from all wells, fluorescence of drug-treated cells was normalized to that of vehicle (<0.5% DMSO)-treated cells to determine the effect of each drug concentration on viability. Each cell line was tested in triplicate and in at least three independent experiments. IC50 (concentration that inhibits cell growth by 50%) values were calculated using CompuSyn software (ComboSyn, Paramus, NJ). […] In addition several cell lines were initially cultured and tested in alternative media (Supplementary Table S2). […] Colony counts were normalized to vehicle-treated controls (100%). Three independent experiments were performed.
as §1

[2] = plasma pharmacokinetics after single oral dose; conditions: NSG mice
Procedure: Plasma samples were obtained from 3-6 male NSG mice per time point (15min-24h after drug administration). Symbols represent concentrations of compound by LC/MS-MS detection.
Blood samples were collected via retro-orbital bleeding into EDTA-coated tubes. PK samples were centrifuged to obtain plasma, which was stored frozen (−80°C) until liquid chromatography/triple quadrupole mass spectrometry (LC/MS-MS) analysis.
were separated using an Agilent Zorbax Eclipse C18 column (2.1 mm x 50 mm, 3.5 μm) using gradient mobile phase
(acetonitrile and 2 mM ammonium acetate both containing 0.1% formic acid) and a gradient flow rate (0.2 to 0.4 ml/
min). An AB Sciex 5500 triple quadrupole mass spectrometer was used for detection. The m/z transitions used were
The calibration range was 5–1,000 ng/mL for all analytes. Mean drug concentrations were calculated at each time point. PK parameters (plasma
half-life [T1/2]; time to reach Cmax [Tmax]; maximum plasma concentration [Cmax]; area under the plasma concentration-
time curve [AUC] from time zero to the last measurable concentration [AUClast]; AUC from time zero to infinity [i.e.,
the AUClast + the extrapolated AUC from AUClast to infinity; AUC0–∞]; apparent volume of distribution [Vz/F]; body
weight-adjusted apparent clearance [CL/F/kg]) were calculated from mean drug concentration-time data using non-
the r2 of the elimination rate constant (λ ) was < 0.9, the AUC , CL/F, and T were not reported (NR).

MOLM14 or KOPN8 cells = test: drug combinations, alamarBlue 48h, combination indices; conditions: for effect of addition on cytotoxicity of ARA, DOX, ETO, MID, LES, SOR: equipotency ratio based on IC50s, 48h
Procedure: Supplementary Figure S10: Drug combinations against MOLM14. MOLM14 cells were treated with a range of concentrations
experiment was performed three times in triplicate, and error bars represent the SEM.
Combination indices (CI) were computed for each drug combination using CompuSyn software, based on the Median Effect
Principle and the CI theorem of Chou-Talalay, wherein CI = 1 indicates additivity, CI < 1 synergism, and CI > 1 antagonism. Data are
Supplementary Figure S11: Drug combinations against KOPN8. KOPN8 cells were treated with a range of concentrations
Each experiment was performed at least three times in triplicate, and error bars represent the SEM.

Kasumi-1 cells = test: alamarBlue cytotoxicity assay, 48h; assay type: cell-based, human; conditions: Kasumi-1 (AML), RPMI + 10% FBS
Procedure: as §2
(§3) In most experiments, cytotoxicity was assessed using alamarBlue assays (Life Technologies, Grand Island, NY). In experiments using NAC and DFO, which can interfere with alamarBlue assay performance, Trypan Blue dye exclusion was used instead. […]
(§4) experiments performed in triplicate. […] Age refers to age […]
(§5) at the time of leukemia diagnosis of the patient from whom the cell line was derived. (–) Indicates information unavailable.
(§6) *Cell lines with FLT3/ITD mutations.
(§7) *The MV-4–11 cell line was derived from a patient with a biphenotypic B-myelomonocytic leukemia; K562 was derived […]
(§8) 1A. p53 status was obtained from http://cancer.sanger.ac.uk/cell_lines/cbrowse/all and http://p53.free.fr/Database/Cancer_ cell_lines/Leukemia_cancer. html. WT: wild type. Mut: mutant. SM: single mutation. DM: double mutation. MM: multiple mutations. Fs: Frameshift mutation. Null: protein expression undetectable.

NALM-6 cells = test: alamarBlue cytotoxicity assay, 48h; assay type: cell-based, human; conditions: NALM-6 (B-ALL), RPMI + 10% FBS
Procedure: as §2, §3, §4, §5, §6, §7, §8

MV-4-11 cells = test: alamarBlue cytotoxicity assay, 48h; assay type: cell-based, human; conditions: RPMI + 10% FBS
Procedure: as §2, §3, §4, §5, §6, §7, §8

MOLT-16 cells = test: alamarBlue cytotoxicity assay, 48h; assay type: cell-based, human; conditions: MOLT-16 (T-ALL), RPMI + 10% FBS
Procedure: as §2, §3, §4, §5, §6, §7, §8

SEM cells = test: alamarBlue cytotoxicity assay, 48h; assay type: cell-based, human
Procedure: as §2, §3, §4, §5, §6, §7, §8

ML-2 cells = test: alamarBlue cytotoxicity assay, 48h; assay type: cell-based, human; conditions: ML-2 (AML), RPMI + 10% FBS
Procedure: as §2, §3, §4, §5, §6, §7, §8

K562 cells = test: alamarBlue cytotoxicity assay, 48h; assay type: cell-based, human; conditions: K562 (CML), RPMI + 10% FBS
Procedure: as §2, §3, §4, §5, §6, §7, §8

Kasumi-2 cells = test: alamarBlue cytotoxicity assay, 48h; assay type: cell-based, human; conditions: Kasumi-2 (B-ALL), RPMI + 10% FBS
Procedure: as §2, §3, §4, §5, §6, §7, §8

U937 cells = test: alamarBlue cytotoxicity assay, 48h; assay type: cell-based, human; conditions: RPMI + 10% FBS
Procedure: as §2, §3, §4, §5, §6, §7, §8

RS4;11 cells = test: alamarBlue cytotoxicity assay, 48h; assay type: cell-based, human; conditions: RS4;11 (B-ALL), RPMI + 10% FBS
Procedure: as §2, §3, §4, §5, §6, §7, §8

CCRF-CEM cells = test: alamarBlue cytotoxicity assay, 48h; assay type: cell-based, human; conditions: CCRF-CEM (T-ALL), RPMI + 10% FBS
Procedure: as §2, §3, §4, §5, §6, §7, §8

primary B-ALL case #109 = test: intravenous B-ALL primagraft model
Procedure: Mice were weighed weekly and tumors measured at least twice weekly. […] Mice were euthanized when tumors reached an estimated 2000mg. […] Mice were weighed weekly and observed daily for clinical signs of severe leukemia.
Highly immunodeficient NSG mice, obtained originally from Jackson Laboratory (Bar Harbor, ME), were bred and housed in the UMSOM animal facilities, and handled in a laminar flow hood under aseptic conditions. All experiment procedures and animal care were in compliance with the NIH guidelines for the Care and Use of Laboratory Animals and approved by the UMSOM Institutional Animal Care and Use Committee. Drugs were formulated in Tween 80:ethanol (7:3, v:v) and diluted 1:10 in filtered deionized water immediately before administration. […] Mice were monitored daily and euthanized when tumors reached an estimated mass of 2000mg (using the formula: [length x width^2]/2, assuming density = 1 mg/mm^3) [56]. […] Mice were euthanized for clinical signs of severe leukemia or other severe distress [52].
Mice were weighed weekly and observed daily for clinical signs of severe

[3] = plasma, single oral dose ART-838 50 mg/kg
[4] = four 5-day cycles ART-838 40 mg/kg/d
[5] = four 5-day cycles AS 150 mg/kg/d

In the case of `C[C@@H]1CCC2[C@@H](C)[C@@H](CC(COP(=O)(Oc3ccccc3)Oc3ccccc3)C[C@H]3O[C@@H]4O[C@@]5(C)CCC6[C@H](C)CCC([C@H]3C)[C@]64OO5)O[C@@H]3O[C@@]4(C)CCC1[C@@]23OO4` (stereo partly drawn) [ART-838, artemisinin-derived trioxane diphenylphosphate dimer 838], the “fold resistance to growth inhibition after DFO pretreatment” value (MOLM14 cells; MOLM14, DFO 11 μM pretreatment) is reported as 3 fold, the “fold resistance to growth inhibition after NAC pretreatment” value (MOLM14 cells; MOLM14, NAC 25 μM pretreatment) is reported as “not increased” and the “chronic MTD” value (NSG mice; 5 days/week by oral gavage, NSG mice) is reported as 40 to 50 mg/kg. For the same compound, the dose-limiting toxicity (NSG mice; NSG mice, oral gavage) was “acute weight loss”, the clinical neurotoxicity (NSG mice; NSG mice, prior toxicity experiments at approximate chronic MTD) was “no clinical neurotoxicity was observed” and the “complete and differential blood cell counts” value (NSG mice; normal NSG mice, 5-day cycle ART-838 50 mg/kg/d, days 6 and 12) was “normal complete and differential blood cell counts”. The “single dose MTD” value (NSG mice; oral gavage, NSG mice) was 500 to 600 mg/kg, the “fold more potent than AS (average)” value ([1]; across 23 leukemia cell lines) was 88 fold and the “fold more potent than AS (range)” value ([1]; across 23 leukemia cell lines) was 11-315 fold. The IC50 ([1]; all 23 leukemia cell lines tested, 48h, read-out: IC50 range) was 0.01 to 0.55 µM, the IC50 ([1]; including those harboring MLLr and FLT3/ITD, read-out: IC50 against every acute leukemia tested) was less than 1 µM and the “fold longer T1/2 than DHA” value ([2]; ART-838 50 mg/kg vs DHA after AS 200 mg/kg, oral) was roughly 6 fold. The “detection of theoretical metabolites DHA and ART-606 in plasma” value ([2]; after ART-838 administration, LC/MS-MS) was “did not detect DHA or ART-606”, the “AUC0–∞” value [2, 3] was 951 ng·h/mL and the AUClast [2, 3] was 903 ng·h/mL. The CL/F/kg [2, 3] was 867 mL/min/kg, the Tmax [2, 3] was 1.5 h and the Vz/F [2, 3] was 241 L/kg. The T1/2 ([2]; plasma, single oral dose ART-838 50 mg/kg, 50 mg/kg) was 3.19 h and > 3 h, the “interaction with kinase inhibitors MID, LES, SOR” value (MOLM14 or KOPN8 cells; combination indices) was “combined synergistically with all three kinase inhibitors” and the “effect of addition on cytotoxicity of ARA, DOX, ETO, MID, LES, SOR” value (MOLM14 or KOPN8 cells) was “enhanced the cytotoxicity of all six tested drugs”. For the same compound, the IC50 (Kasumi-1 cells) was 0.067 ± 0.023 µM, the IC50 (NALM-6 cells) was 0.016 ± 0.005 µM and the IC50 (MV-4-11 cells; MV-4-11 (AML/B-ALL)) was 0.025 ± 0.005 µM. For the same compound, the IC50 (MOLT-16 cells) was 0.01 ± 0.002 µM, the IC50 (SEM cells; SEM (B-ALL), 48h, RPMI + 10% FBS, read-out: IC50) was 0.029 ± 0.006 µM and the “-Fold Difference in IC50 between media” value (SEM cells; SEM, DMEM + 10% FBS vs RPMI+10% FBS) was 9.2. For the same compound, the IC50 (SEM cells; SEM, original medium DMEM + 10% FBS, read-out: IC50 in original medium) was 0.268 µM, the IC50 (ML-2 cells) was 0.021 ± 0.011 µM and the IC50 (K562 cells) was 0.094 ± 0.012 µM. For the same compound, the IC50 (Kasumi-2 cells) was 0.026 ± 0.004 µM, the IC50 (U937 cells; U937 (AML)) was 0.01 ± 0.001 µM and the IC50 (RS4;11 cells) was 0.062 ± 0.023 µM. The IC50 (CCRF-CEM cells) was 0.483 ± 0.195 µM, the “body weight loss following treatment” value (primary B-ALL case #109; [4]) was “No dose-limiting body weight loss” and the “extension of mean survival time” value (primary B-ALL case #109; [4]) was 20 days. For the same compound, the “prolongation of mean survival time” value (primary B-ALL case #109; [4]) was 55%, the “Mean time to severe clinical signs of leukemia (surrogate for survival)” value (shortened to “Mean time to severe clinical signs”) (primary B-ALL case #109; four 5-day cycles ART-838 40 mg/kg/d oral gavage, vehicle 37) was 57 and the “Mean time to severe clinical signs” value (primary B-ALL case #109; second experiment: two 5-day cycles ART-838 50 mg/kg/d, days 1 and 29, vehicle 28) was 47.

With `C[C@H]1[C@H](OC(=O)CCC(=O)O)O[C@@H]2O[C@@]3(C)CC[C@H]4[C@H](C)CC[C@@H]1[C@@]24OO3` [AS, artesunate] the IC50 (MOLM14 cells; Homo sapiens, MOLM-14, MOLM14, 48h, Pre-Treatment: CTRL, unit inferred, read-out: IC50) was 0.885 ± 0.057 µM, the clinical neurotoxicity (NSG mice; mouse, in vivo) was “no clinical neurotoxicity was observed” and the dose-limiting toxicity (NSG mice; mouse, in vivo, po) was “acute weight loss”. It also gave an IC50 ([1]; Homo sapiens, 48 h, all 23 leukemia cell lines tested, 48h, read-out: IC50 range) of 0.46 to 10.3 µM, an IC50 ([1]; Homo sapiens, Leukemia Type: ALL, unit only on plot axis of Figure 1A, read-out: IC50 Range) of 0.46 to 10 µM and an IC50 ([1]; Homo sapiens, Leukemia Type: ALL, unit only on plot axis of Figure 1A, read-out: Mean IC50) of 5 µM. For the same compound, the IC50 ([1]; Homo sapiens, Leukemia Type: ALL, unit only on plot axis of Figure 1A, read-out: Median IC50) was 4.8 µM, the IC50 ([1]; Homo sapiens, Leukemia Type: AML, unit only on plot axis of Figure 1A, read-out: IC50 Range) was 0.8 to 6.3 µM and the IC50 ([1]; Homo sapiens, Leukemia Type: AML, unit only on plot axis of Figure 1A, read-out: Mean IC50) was 2.3 µM. The IC50 ([1]; Homo sapiens, Leukemia Type: AML, unit only on plot axis of Figure 1A, read-out: Median IC50) was 1.7 µM, the “time by which plasma declined to undetectable levels” value ([2]; single oral dose AS 200 mg/kg) was no more than 1 h and the “interaction with SOR” value (MOLM14 or KOPN8 cells; combination indices) was “additive effects”. The “effect of addition on cytotoxicity of ARA, DOX, ETO, MID, LES, SOR” value (MOLM14 or KOPN8 cells) was “enhanced the cytotoxicity of all six tested drugs”, the IC50 (Kasumi-1 cells; Homo sapiens) was 1.72 ± 0.23 µM and the IC50 (NALM-6 cells; Homo sapiens) was 5.19 ± 0.43 µM. For the same compound, the IC50 (MV-4-11 cells; Homo sapiens, MV4-11, MV-4-11 (AML/B-ALL)) was 0.796 ± 0.096 µM, the IC50 (MOLT-16 cells; Homo sapiens) was 1.63 ± 0.07 µM and the IC50 (SEM cells; Homo sapiens, SEM (B-ALL), 48h, RPMI + 10% FBS, read-out: IC50) was 4.08 ± 1.18 µM. The IC50 (SEM cells; Homo sapiens, SEM, original medium DMEM + 10% FBS, read-out: IC50 in original medium) was 18.3 µM, the IC50 (ML-2 cells; Homo sapiens) was 1.46 ± 0.21 µM and the IC50 (K562 cells; Homo sapiens) was 4.75 ± 0.85 µM. For the same compound, the IC50 (Kasumi-2 cells; Homo sapiens) was 6.65 ± 0.34 µM, the IC50 (U937 cells; Homo sapiens, U-937, U937 (AML)) was 1.06 ± 0.17 µM and the IC50 (RS4;11 cells; Homo sapiens) was 5.42 ± 1.89 µM. For the same compound, the IC50 (CCRF-CEM cells; Homo sapiens) was 7.34 ± 1.24 µM, the “body weight loss following treatment” value (primary B-ALL case #109; [5]) was “No dose-limiting body weight loss” and the “extension of mean survival time” value (primary B-ALL case #109; [5]) was 19 days. The “prolongation of mean survival time” value (primary B-ALL case #109; [5]) was 51%, the “Mean time to severe clinical signs” value (primary B-ALL case #109; four 5-day cycles AS 150 mg/kg/d oral gavage, vehicle 37) was 56 and the “Mean time to severe clinical signs” value (primary B-ALL case #109; second experiment: two 5-day cycles AS 200 mg/kg/d, days 1 and 29, vehicle 28) was 43.
